The text below walks through data of patent US20260374818A1, “CATIONIC PEPTIDES WITH BROAD SPECTRUM ACTIVITY” (priority 2023, published 2026).

≈ marks a conversion by molar mass, not a printed value. Where a SMILES comes first, the peptide text is derived from it. [ ]: non-standard residue; d: D form.

As a reminder, the IC50 is the concentration that inhibits the measured activity by half. For orientation: MIC means the smallest concentration in the dilution series that meets the test's criterion for growth inhibition. A higher MIC goes with a less susceptible organism.

The test system of series [1] is P. aeruginosa LESB58 biofilms on Ker-CT epidermal skin. Briefly: Skin organoid biofilm model, AB103-D loaded Medvance foam dressing, P. aeruginosa LESB58. Type of series: cell-based, Pseudomonas aeruginosa.
A further series deals with PAO1 preformed biofilms. Conditions: for IC50: read-out: Biofilm Eradication IC50, PAO1, 24-hr preformed biofilms treated overnight, TTC.
A further series concerns Streptococcus salivarius. Briefly: MIC (broth microdilution) of peptides, S. salivarius. Type of series: cell-based. Conditions: mode of three biological replicates. As to the method: (§1) Minimal inhibitory concentration (MIC) against planktonic bacteria: The MIC of the synthetic peptides was determined in Mueller-Hinton broth (MHB) using the broth microdilution method described previously [Wiegand, I., Hilpert, K., & Hancock, R. E. (2008). Agar and broth dilution methods to determine the minimal inhibitory concentration (MIC) of antimicrobial substances. Nature Protocols, 3(2), 163-175]. Briefly, 10 μl of a 10× concentrated peptide solution was placed in the bottom of a well in a 96-well polypropylene round bottom plate (Corning Inc.). A bacterial suspension of ~5×10^5 CFU/ml was prepared from an overnight culture and 90 μl of this was added to each well. […] Bacteria tested included P. aeruginosa PAO1, MRSA USA300 LAC, Staphylococcus haemolyticus, Staphylococcus epidermidis, Klebsiella pneumoniae and Streptococcus salivarius.
(§2) Finally, the AB103-D derivatives that were the least aggregation prone and which produced the lowest toxic effects in vivo were evaluated for their direct antibacterial activity towards several pathogens of clinical relevance using a standard minimum inhibitory concentration (MIC) assay [Wiegand, I., Hilpert, K., & Hancock, R. E. (2008). Agar and broth dilution methods to determine the minimal inhibitory concentration (MIC) of antimicrobial substances. Nature Protocols, 3(2), 163-175]. Specifically, peptides AB110-D, AB111-D, AB114-D and AB115-D were tested against P. aeruginosa PAO1, MRSA USA 300, Staphylococcus haemolyticus, Staphylococcus epidermidis, Klebsiella pneumoniae and Streptococcus salivarius and compared against the antibacterial activity of DJK-5 and AB103-D (Table 7). Overall, the antibacterial potency of all of the AB103-D derivatives was stronger than that seen for DJK-5, particularly in the case of the Gram-negative pathogens P. aeruginosa and K. pneumoniae. […]
(Broth dilution looks for growth in wells or tubes with falling amounts of substance.)

The test system of series [2] is MRSA biofilms on N/TERT epithelial skin. Briefly: Skin organoid biofilm model, peptide-loaded collagen dressings, MRSA. Type of series: cell-based, methicillin resistant Staphylococcus aureus. Conditions: compared to DJK-5 and ciprofloxacin.
In series [3] the test system is peripheral blood mononuclear cells (PBMCs). The series is described as follows: Cytotoxicity (LDH release), PBMCs.
A further series deals with N/TERT keratinocytes. The series is described as follows: Cytotoxicity (LDH release), N/TERT keratinocytes. (LDH in the medium is a marker of cell lysis.)
Series [4] concerns Staphylococcus epidermidis. Briefly: MIC (broth microdilution) of peptides, S. epidermidis. The settings on record: mode of three biological replicates. Type of series: cell-based. The method, then:
as §1, §2

Another series deals with P. aeruginosa LESB58. Briefly: Murine sinusitis model, P. aeruginosa. The series is classed as in vivo, mouse; Pseudomonas aeruginosa. From the text:
(§3) FIGS. 15A-15I show peptides AB101-D, AB102-D and AB103-D compared to DJK5 in a murine sinusitis model of bacterial infections. MRSA USA300, nasal cavity (FIG. 15A) P. aeruginosa LESB58 (FIG. 15B and FIG. 15C, nasal cavity); MRSA USA300, lung tissue (FIG. 15D) P. aeruginosa LESB58 (FIG. 15E and FIG. 15F, lung tissue); and MRSA USA300, weight change (FIG. 15G) P. aeruginosa LESB58 (FIG. 15H and FIG. 15I, weight change).
(§4) A murine sinusitis model of bacterial infections in the nasal cavity of mice [Alford et al. (2021). Murine model of sinusitis infection for screening antimicrobial and immunomodulatory therapies. Frontiers in Cellular and Infection Microbiology., 11, 621081] was used to determine the efficacy of D-amino acid peptides AB101-D, AB102-D and AB103-D compared to DJK5. […]. Treatment was applied either as dropwise administration of a peptide solution (20 μl) to the infected naris of a mouse (FIGS. 15A, 15B, 15D, 15E, 15G, 15H) or peptide was delivered using a Respimat® inhaler device (FIGS. 15C, 15F, 15I). Mice were monitored and weighed once daily for up to three days then euthanized prior to collection of nasal lavage fluid and lung tissue for bacterial enumeration. The limit of detection is shown by the dotted line at log CFU=2. […] Accordingly, the results indicated enhanced efficacy of D-amino acid peptides AB101-D, AB102-D and AB103-D compared to DJK5 in this murine model.

Series [5] can be described thus: Subdermal murine toxicity model. Conditions: for Clinical score: 1 hour after subcutaneous administration, comparator DJK-5. An outline of the steps: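 Peptides given subdermally to shaved, depilated, isoflurane-anaesthetised female CD-1 mice (8 weeks, 25±5 g) at 4 mg/kg. Summed clinical scores taken at 1 h; cyst or lesion presence and caliper size recorded at 16 h. Values are the mean of two independent replicates.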

The test system of series [6] is A. baumanii biofilms on Ker-CT epidermal skin. Briefly: Skin organoid biofilm model, AB103-D loaded Medvance foam dressing, A. baumanii. The series is classed as cell-based, Acinetobacter baumannii.
In the next series the test system is MRSA USA300. Briefly: Murine sinusitis model, MRSA. Type of series: in vivo, mouse; methicillin resistant Staphylococcus aureus.
Source text: as §3, §4

Another series concerns Klebsiella pneumoniae. The series is described as follows: MIC (broth microdilution) of peptides, K. pneumoniae. The settings on record: mode of three biological replicates. The series is classed as cell-based. The method, then: as §1, §2

On to `CC[C@@H](C)[C@@H](NC(=O)[C@@H](C)NC(=O)[C@@H](CCCNC(=N)N)NC(=O)[C@@H](Cc1c[nH]c2ccccc12)NC(=O)[C@@H](CCC(N)=O)NC(=O)[C@H](NC(=O)[C@@H](CCCNC(=N)N)NC(=O)[C@H](NC(=O)[C@H](NC(=O)[C@@H](CCCNC(=N)N)NC(=O)[C@H](NC(=O)[C@H](N)CCCNC(=N)N)C(C)C)C(C)C)[C@H](C)CC)C(C)C)C(N)=O` [AB103-D, rvrvirvqwrai-NH2] (H-[dR][dV][dR][dV][dI][dR][dV][dQ][dW][dR][dA][dI]-NH2), for which the “Bacterial burden on organoid skin, loaded bandage” value in series [1] and in series [6] was “effectively reduce the bacterial burden” each time. In the series with PAO1 preformed biofilms (P. aeruginosa, compared with DJK5), the “Enhanced antibiofilm eradication activity” value is > 2 fold. The IC50 in the series on PAO1 preformed biofilms amounted to 1700 nM. Also, the minimal inhibitory concentration (MIC) (in the series with Streptococcus salivarius; in series [4]; with Klebsiella pneumoniae) was 0.8 µg/mL (≈ 0.516 µM) in each case. Besides, the “Antibiofilm activity from collagen dressing” value in series [2] is “clearly superior activity to both DJK-5 and ciprofloxacin”. The “Cytotoxicity (LDH)” value (in series [3]; with N/TERT keratinocytes) was “low toxicity” each time. Also, the “Bacteria in nasal cavity and lungs” value in the series with P. aeruginosa LESB58 (P. aeruginosa LESB58, 0.1 mg dose, compared to DJK5) is “reduced the amount of bacteria in the nasal cavity and lungs of mice much more than DJK5 treatment”; in the series on MRSA USA300 (MRSA USA300, 0.1 mg dose, compared to DJK5) it was “reduced the amount of bacteria in the nasal cavity and lungs of mice much more than DJK5 treatment”. Also, the Clinical score in [5] is listed as < 2. Further, the “Average cyst size compared to DJK-5” value in series [5] (16 hours after administration, 4 mg/kg) is recorded as “smaller than those induced by DJK-5”. Further, in the series with ESKAPEE Pathogens, the “Broad spectrum antibiofilm activity, more active than DJK5” value was 2-4 fold.

Regarding `CC[C@@H](C)[C@@H](NC(=O)[C@@H](C)NC(=O)[C@@H](CCCNC(=N)N)NC(=O)[C@@H](Cc1c[nH]c2ccccc12)NC(=O)[C@@H](CCC(N)=O)NC(=O)[C@H](N)C(C)C)C(=O)N[C@H](CCCNC(=N)N)C(=O)N[C@@H](C(=O)N[C@H](CCCNC(=N)N)C(=O)N[C@@H](C(=O)N[C@@H](C(=O)N[C@H](CCCNC(=N)N)C(N)=O)[C@H](C)CC)C(C)C)C(C)C` [DJK5, vqwrairvrvir-NH2] (H-[dV][dQ][dW][dR][dA][dI][dR][dV][dR][dV][dI][dR]-NH2), in the series with PAO1 preformed biofilms, the IC50 was 3800 nM. Further, the results for the minimum inhibitory concentration (MIC) (against Streptococcus salivarius; in [4]; against Klebsiella pneumoniae) were 0.8 µg/mL (≈ 0.516 µM), 0.8 µg/mL (≈ 0.516 µM) and 3 µg/mL (≈ 1.93 µM), respectively. Besides, the Weight loss entry in the series with P. aeruginosa LESB58 (P. aeruginosa LESB58 infected mice) and in the series with MRSA USA300 (MRSA USA300 infected mice) was “did not prevent weight loss” throughout. Further, the Clinical score in series [5] worked out at 2.
